{
  "source": "patent US6521613B2",
  "about": "“Lactam compounds for penetration enhancement” (Allergan, Inc., priority 2001, dated 2003)",
  "system": "rabbit cornea",
  "test": "Penetration enhancement testing: rate of diffusion of drug between chambers separated by rabbit cornea",
  "assay_type": "in vitro ADME",
  "settings": "test drugs prednisolone, guanethidine, flurbiprofen, compound used as penetration enhancer",
  "protocol": "Permeation efficiencies are determined by measuring the rate of diffusion of drug between posterior and anterior chambers separated by rabbit cornea. Suitable test drugs include prednisolone, guanethidine, and flurbiprofen. Compounds II and V, described in Examples 2 and 4 above, are tested penetration enhancers. Water, acetone, ethanol, and GBR (glutathione-buffered Ringer's solution) are convenient vehicles used alone or in combination together with the test drugs and the proposed penetration enhancers. The relative rates of diffusion can be determined indirectly by measuring pH versus time in the respective chambers, or by HPLC.",
  "data": [
    {"compound": "CCOCCOCCOCCN1CCCCCC1=O", "note": "[Compound II, N-triethoxyethylether Caprolactam]", "values": [
      {"measurement": "penetration or permeation of test drugs relative to similar compositions without the present compounds", "result": "enhanced penetration or permeation"}
    ]},
    {"compound": "O=C1CCCCCN1CCOCCOCCO", "note": "[Compound V, N-triethyleneglycol Caprolactam]", "values": [
      {"measurement": "penetration or permeation of test drugs relative to similar compositions without the present compounds", "result": "enhanced penetration or permeation"}
    ]}
  ]
}
